Laboratory results published in patent US20240343699A1, “DERIVATIVES OF SUBSTITUTED MORPHOLINES AND USES THEREOF” (Supernus Pharmaceuticals, Inc., priority 2023, published 2024).
Counter-ions that a name gives are not always drawn.

Key:
[1] = test system: rat red blood cells; test: Hemolysis in rat blood; format: cell-based; settings: rat blood, 60 min exposure; read-out: EC50 (% RBC lysis)
Protocol: Stability of Test Articles at Different pH Values. 10 mM stock solutions of COMPOUND A were prepared in DMSO. From this stock solution, a single concentration in a 10 μL aliquot was added to three fluid matrices: SGF at pH 2.0 (gastric), SIF at pH 6.0 (upper intestine), and PBS at 7.4 (systemic). The final volume was 1 mL (0.1 mM). The preparations were then incubated at 37° C. and samples were collected at 0, 15, 30, 60, and 120 min for analysis of parent material by LC/MS/MS. The collected sample was quenched in acetonitrile/0.1% formic acid mixture. Red Blood Cell (RBC): Human and rat blood were centrifuged to separate out red blood cells at […] for 15 min. The upper plasma level was aspirated with a micropipette and placed in a bleach solution for disposal. The RBC pellet was resuspended in sterile isotonic saline. The pellet was gently resuspended by rocking the tube. The sample was then centrifuged again to collect the RBC pellet and then resuspended and washed one more time following the same procedure. A total of three was done. Following the last wash and centrifugation, the RBCs were resuspended with PBS; and mixed by inversion. Aliquots of the resuspended and washed RBCs were then placed into 4 reaction tubes. These tubes were centrifuged to collect the RBCs. The fluid level was marked on each tube, then the supernatant was aspirated off and the cells resuspended with room temperature PBS pH 7.4 to the original mark. An aliquot of the RBC suspension was added to four sterile tubes containing PBS pH 7.4 at room temperature.
Stability in Human and Rat Red Blood cells and Hemolysis. […] After centrifugation, 70 μL of supernatant (without disturbing the pellet) was transferred to a clean and clear polystyrene flat bottomed 96-well plate and the absorbance of the sample at a single wavelength was measured using a Bio Tech Synergy Hl Plate Reader at a wavelength of 410 nm. […] Stability was measured by measuring loss of parent compound using LC/MS/MS.

[2] = test system: recognition memory; test: Spontaneous novel object recognition (NOR), 48 hr retention interval; format: in vivo, male Wistar rats; settings: donepezil 2.0 mg/kg i.p., 48 hr delay
[3] = test system: recognition memory; test: Novel object recognition, scopolamine-impairment model, 3 hr retention interval
[4] = test system: immobility; test: Tail suspension test (TST); settings: imipramine 15 mg/kg IP, vs vehicle (p=0.01)
Protocol: The tail suspension test is an experimental method used in scientific research to measure a state of being helpless in rodents, especially in mice. It is based on the observation that if a mouse is subjected to short term inescapable stress then the mouse will stop struggling. Immobility is quantified by measuring the amount of time lacking whole body activity.
The immobilized time in the last 4 min of the TST, which indicated depression-like behavior, was quantified using offline video manual scoring in a blinded manner.
Animals. Adult (7 to 8 weeks) male mice (C57Bl/6, Charles River Laboratories) were used in the study. Upon arrival, animals were group-housed (5/cage) with access to food and water ad libitum. Animals were maintained on a 12/12-hour light/dark cycle in a temperature—(22±2° C.) and humidity—(approx. 50%) controlled room. Animals were numbered consecutively by tail marks. Each cage was identified by a card indicating the study number, sex, animal numbers and date of birth.
Test article formulations were prepared fresh based on weight-to-volume in the vehicle on each dosing day. […] The appearance of the formulations was clear, with no precipitations. […] A vehicle group was included for comparison.
Monitoring. A piezoelectric sensor operated by the SmartCage system was utilized and video recording was conducted for scoring. After animals acclimated to the testing room, an individual mouse's tail was placed onto the piezoelectric sensor-board and the mouse was hung upside down, which signaled the immediate start of the recording of struggle activity, and it lasted for 6 min. The mouse was then taken off and returned to the home cage. The immobilized time, indicating depression-like behavior, was quantified using manual scoring of the video recordings for the period from 120 seconds to 360 seconds during TST. The percent immobility time was calculated: (immobility time/240 seconds)*100.
The immobilized time in the last 4 min of the TST, which indicates depression-like behavior, was quantified using offline video manual scoring in a blinded manner.
Animals. Adult (8 weeks, approximately 20-25 g) male mice (C57Bl/6, Vendor: Charles River Laboratories) were used in the study. Upon arrival, animals were group-housed (5/cage) with access to food and water ad libitum. Animals were maintained on a 12/12-hour light/dark cycle in a temperature—(22±2° C.) and humidity—(35-50%) controlled room. Animals were numbered consecutively by tail ID. Each cage was identified by a colored card indicating the study number, sex, animal numbers and date of birth.
Test article formulations were prepared fresh based on weight-to-volume in the vehicle on dosing day. […] The appearance of the formulations was clear, with no precipitations.
The tail suspension test is an experimental method used in scientific research to measure a state of being helpless in rodents, especially in mice. It is based on the observation that if a mouse is subjected to short term inescapable stress then the mice will give up struggling. “Immobility” is quantified by measuring the amount of time during which the animal has no whole-body activity.
Tail Suspension Test (TST). A piezoelectric sensor operated by the SmartCage system was utilized and video recording was conducted for scoring. Once animals were acclimated to the testing room, the TST was initiated by placing the tail of the test mouse onto the piezoelectric sensor-board and hanging the mouse upside down. The recording period was initiated once the mouse was upside down and lasted for 6 min. After the recording period, the mouse was removed from the recording device and returned to its home cage.

C[C@@H]1[C@H](O)[C@@H](C)/C=C/C=C/C=C/C=C/C=C/C=C/C=C/[C@H](O[C@@H]2O[C@H](C)[C@@H](O)[C@H](N)[C@@H]2O)C[C@@H]2O[C@](O)(C[C@@H](O)C[C@@H](O)[C@H](O)CC[C@@H](O)C[C@@H](O)CC(=O)O[C@H]1C)C[C@H](O)[C@H]2C(=O)O [amphotericin B, reference compound]
EC50 [1]: 4.73 µM

COc1cc2c(cc1OC)C(=O)C(CC1CCN(Cc3ccccc3)CC1)C2 (stereo not drawn) [donepezil, reference compound]
preference for the novel object (exploration times) [2]: significant preference for the novel object

Cc1ccc(Sc2ccccc2N2CCNCC2)c(C)c1 [vortioxetine]
memory enhancement (attenuation of the scopolamine impairment) ([3]; vortioxetine 10 mg/kg s.c. + scopolamine 0.2 mg/kg i.p., 3 hr delay): not associated with significant memory enhancement | adverse reactions ([3]; vortioxetine-scopolamine combination, three of the twelve rats, A/A session): adverse reactions during the A/A session (thigmotaxis, vocalizations, labored breathing)

CN1[C@@H]2C[C@@H](OC(=O)[C@H](CO)c3ccccc3)C[C@H]1[C@@H]1O[C@@H]12 [scopolamine, (−)-scopolamine hydrobromide]
d2 ratios vs vehicle-controls ([3]; vehicle-scopolamine 0.2 mg/kg i.p.): significantly impaired compared to the vehicle-controls

CN(C)CCCN1c2ccccc2CCc2ccccc21 [imipramine, reference compound]
percent immobility time [4]: significantly reduced immobility time
